Key:
[1] = target: T1, glutathione-S-transferase (GST) tagged LXRalpha LBD (ligand binding domain) (Homo sapiens, UniProt Q13133); assay: biochemical; conditions: for EC50: LXR alpha IP; for Emax: read-out: LXR alpha actiivty at max dose, efficacy (% Emax) in relation to reference dual agonist T0901317
T1 construct: purchased Invitrogen pv4655
T1 sequence (Q13133 209-447 limits assumed): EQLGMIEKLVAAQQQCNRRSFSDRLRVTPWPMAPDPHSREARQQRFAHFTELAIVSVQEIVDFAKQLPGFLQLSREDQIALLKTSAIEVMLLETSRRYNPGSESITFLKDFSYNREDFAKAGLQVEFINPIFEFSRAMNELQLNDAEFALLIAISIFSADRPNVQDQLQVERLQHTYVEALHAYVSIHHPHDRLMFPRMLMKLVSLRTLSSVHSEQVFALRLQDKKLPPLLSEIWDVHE
Summary of the method: (§1)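 LXR alpha- or beta-LBD was added to test compounds, then a mix of fluorescein-labelled coactivator peptide and terbium anti-GST antibody. After room-temperature incubation, TR-FRET was read on a filter-based reader.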

[2] = target: T2, glutathione-S-transferase (GST) tagged LXRbeta LBD (ligand binding domain) (Homo sapiens, UniProt P55055); assay: LanthaScreen TR-FRET Liver X Receptor Coactivator Assay, LXR beta; format: biochemical; conditions: for EC50: LXR beta IP, potency (Inflection Point), compound-induced co-activator recruitment, TR-FRET; for Emax: read-out: LXR beta actiivty at max dose, efficacy (% Emax) in relation to reference dual agonist T0901317
T2 construct: purchased Invitrogen pv4658
T2 sequence (P55055 222-460 limits assumed): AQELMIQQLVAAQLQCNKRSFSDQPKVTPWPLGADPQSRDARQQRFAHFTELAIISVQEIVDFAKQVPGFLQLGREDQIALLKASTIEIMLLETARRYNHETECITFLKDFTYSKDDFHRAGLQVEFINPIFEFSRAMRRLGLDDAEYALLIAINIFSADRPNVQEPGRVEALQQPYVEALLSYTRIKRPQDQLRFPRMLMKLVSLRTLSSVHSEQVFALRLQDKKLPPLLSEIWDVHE
Summary of the method: as §1

[3] = potency (Inflection Point), compound-induced co-activator recruitment, TR-FRET
[4] = efficacy (% Emax) in relation to reference dual agonist T0901317

| EC50 [1, 3] | Emax [1] | EC50 [2] | Emax [2] | LXR alpha actiivty at max dose [1, 4] | LXR beta actiivty at max dose [2, 4] | LXR alpha IP [1, 3] | Compound |
| --- | --- | --- | --- | --- | --- | --- | --- |
| 0.631 µM | 33% | 0.042 µM | 75% | – | – | – | CN(C)C(=O)c1ccc(OC[C@H]2C[C@@H]2C2CCN(C(=O)C(C)(C)c3ccccc3)CC2)cc1Cl (single isomer, unassigned) [Example 32-6, 2-chloro-N,N-dimethyl-4-(((1S,2R or 1R,2S)-2-(1-(2-methyl-2-phenylpropanoyl)piperidin-4-yl)cyclopropyl)methoxy) benzamide] |
| 2.23 µM | 23% | 0.135 µM | 67% | – | – | – | CN(C)C(=O)c1ccc(OCC[C@H]2CC23CCN(C(=O)[C@@](N)(c2ccccc2)C(F)(F)F)CC3)cc1Cl (single isomer, unassigned) [Example 12-8, 4-(2-((R or S)-6-((S or R)-2-amino-3,3,3-trifluoro-2-phenylpropanoyl)-6-azaspiro[2.5]octan-1-yl)ethoxy)-2-chloro-N,N-dimethylbenzamide] |
| 0.669 µM | – | 0.041 µM | – | 35% | 114% | – | CC(CCCOc1ccc(C(=O)N(C)C)c(Cl)c1)C1CCN(C(=O)C(O)(c2ccccc2)C(F)(F)F)CC1 (single isomer, unassigned) [Example 26-4, 2-chloro-N,N-dimethyl-4-((S or R)-4-(1-((S or R)-3,3,3-trifluoro-2-hydroxy-2-phenylpropanoyl)piperidin-4-yl)pentyloxy)benzamide] |
| 0.227 µM | 19% | 0.038 µM | 48% | – | – | – | O=C(c1ccc(OCCCCC2CCN(C(=O)C(O)(c3ccccc3)C(F)(F)F)CC2)cc1Cl)N1C[C@H]2CC[C@@H]1C2 (single isomer, unassigned) [Example 8-14, (R or S)-1-(4-(4-(4-((1R,4S)-2-azabicyclo[2.2.1]heptane-2-carbonyl)-3-chlorophenoxy)butyl)piperidin-1-yl)-3,3,3-trifluoro-2-hydroxy-2-phenylpropan-1-one] |
| 1.51 µM | 14% | 0.106 µM | 69% | – | – | – | CN(C)C(=O)c1ccc(OCC[C@@H]2C[C@@H]2C2CCN(C(=O)c3c(F)cccc3F)CC2)cc1Cl (single isomer, unassigned) [Example 10-2, 2-chloro-4-(2-((1S,2R or 1R, 2S)-2-(1-(2,6-difluorobenzoyl)piperidin-4-yl)cyclopropyl)ethoxy)-N,N-dimethylbenzamide] |
| – | 0% | 0.14 µM | 46% | – | – | No IP | Cc1nc(OC2CCC3(CC2)CCN(C(=O)C(O)(c2cccc(OC4CC4)c2)C(F)(F)F)CC3)ccc1C(=O)N(C)C (single isomer, unassigned) [Example 2-1, 6-(3-((R or S)-2-(3-cyclopropoxyphenyl)-3,3,3-trifluoro-2-hydroxypropanoyl)-3-azaspiro[5.5]undecan-9-yloxy)-N,N,2-trimethylnicotinamide] |
| 1.36 µM | 12% | 0.098 µM | 84% | – | – | – | COc1cccc([C@](O)(C(=O)N2CCC(CCCC(C)Oc3ccc(C(=O)N(C)C)c(Cl)c3)CC2)C(F)(F)F)c1 (single isomer, unassigned) [Example 25-2, 2-chloro-N,N-dimethyl-4-((R or S)-5-(1-((S or R)-3,3,3-trifluoro-2-hydroxy-2-(3-methoxyphenyl)propanoyl)piperidin-4-yl)pentan-2-yloxy)benzamide] |

| Compound | EC50 [1, 3] | Emax [1] | EC50 [2] | Emax [2] | LXR alpha actiivty at max dose [1, 4] | LXR beta actiivty at max dose [2, 4] | LXR alpha IP [1, 3] |
| --- | --- | --- | --- | --- | --- | --- | --- |
| CN(C)C(=O)c1ccc(OCCCCC2CCN(C(=O)C(O)(c3cccc(Cl)c3)C(F)(F)F)CC2)cc1Cl (single isomer, unassigned) [Example 3-2, (S or R)-2-chloro-4-(4-(1-(2-(3-chlorophenyl)-3,3,3-trifluoro-2-hydroxypropanoyl)piperidin-4-yl)butoxy)-N,N-dimethylbenzamide] | 0.128 µM | 37% | 0.006 µM | 79% | – | – | – |
| CN(C)C(=O)c1ccc(OCCCCC2CCN(C(=O)C(O)(c3ccccc3)C(F)(F)F)CC2)nc1C#N (centres unmarked) [Example 4-1, 2-cyano-N,N-dimethyl-6-(4-(1-(3,3,3-trifluoro-2-hydroxy-2-phenylpropanoyl)piperidin-4-yl)butoxy)nicotinamide] | 0.419 µM | 37% | 0.03 µM | 77% | – | – | – |
| CN(C(=O)c1ccc(OCCCCC2CCN(C(=O)[C@](O)(c3ccccc3)C(F)(F)F)CC2)cc1Cl)C1COC1 (single isomer, unassigned) [Example 8-13, (R or S)-2-chloro-N-methyl-N-(oxetan-3-yl)-4-(4-(1-(3,3,3-trifluoro-2-hydroxy-2-phenylpropanoyl)piperidin-4-yl)butoxy) benzamide] | 0.412 µM | 29% | 0.022 µM | 73% | – | – | – |
| CCNC(=O)c1ccc(OCCCCC2CCN(C(=O)[C@](O)(c3ccccc3)C(F)(F)F)CC2)cc1Cl (single isomer, unassigned) [Example 8-10, (R or S)-2-chloro-N-ethyl-4-(4-(1-(3,3,3-trifluoro-2-hydroxy-2-phenylpropanoyl)piperidin-4-yl)butoxy) benzamide] | 0.719 µM | 28% | 0.03 µM | 76% | – | – | – |

Reference: US11655216B2 (priority 2016, dated 2023)
